Data on 12 compounds can be found in ChEMBL document CHEMBL6074707, “Targeting Cancer: A New Era in Cancer Therapy through Immune Fitness Modulation and KRAS Degradation” (ACS Med Chem Lett, 2024).

The target of assay [1] is Protein cereblon/GTPase KRas (Homo sapiens, UniProt P01116+Q96SW2, G12D). Put plainly: PROTAC activity at CRBN/KRAS G12D mutant in human ASPC1 cells assessed as induction of protein degradation incubated for 24 hrs by Western blot analysis. In kind it is cell-based.
Assay [2] concerns Protein cereblon/GTPase KRas (Homo sapiens), P01116+Q96SW2 [G12D]. Put plainly: PROTAC activity at CRBN/KRAS G12D mutant in human ASPC1 cells assessed as induction of protein degradation incubated for 24 hrs by Western blot analysis relative to control. In kind it is cell-based.
Sequence of Protein cereblon/GTPase KRas (Homo sapiens), P01116+Q96SW2 [G12D] (P01116 whole entry G12D): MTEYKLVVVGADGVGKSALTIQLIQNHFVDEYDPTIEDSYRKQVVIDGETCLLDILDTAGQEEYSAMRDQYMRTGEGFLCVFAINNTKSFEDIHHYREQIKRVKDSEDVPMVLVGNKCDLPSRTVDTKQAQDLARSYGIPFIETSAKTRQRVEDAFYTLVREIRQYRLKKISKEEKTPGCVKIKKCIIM
Sequence of Protein cereblon/GTPase KRas (Homo sapiens), P01116+Q96SW2 [G12D] (Q96SW2 whole entry partner): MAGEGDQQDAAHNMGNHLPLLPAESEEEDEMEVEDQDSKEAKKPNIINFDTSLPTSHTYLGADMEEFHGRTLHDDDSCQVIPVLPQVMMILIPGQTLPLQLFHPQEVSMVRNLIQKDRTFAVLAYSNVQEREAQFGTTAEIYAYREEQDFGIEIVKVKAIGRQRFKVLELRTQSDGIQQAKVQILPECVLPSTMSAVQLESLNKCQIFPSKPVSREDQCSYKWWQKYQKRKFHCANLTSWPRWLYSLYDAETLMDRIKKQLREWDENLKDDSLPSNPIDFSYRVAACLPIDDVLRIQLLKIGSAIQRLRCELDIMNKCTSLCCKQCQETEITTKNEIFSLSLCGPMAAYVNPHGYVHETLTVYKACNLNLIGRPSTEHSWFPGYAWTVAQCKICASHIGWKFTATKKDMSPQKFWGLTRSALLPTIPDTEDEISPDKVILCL

Sequence of Protein cereblon/GTPase KRas (P01116 whole entry G12D, stated change not applied): as the sequence (P01116 whole entry G12D) above
Sequence of Protein cereblon/GTPase KRas (Q96SW2 whole entry, stated change not applied): as the sequence (Q96SW2 whole entry partner) above

Regarding `C#Cc1c(F)ccc2cc(O)cc(-c3ncc4c(N5C[C@H]6CC[C@@H](C5)N6)nc(OC[C@@H]5C[C@@H](OC6CCN(CC7CCN(c8ccc9c(c8)n(C)c(=O)n9C8CCC(=O)NC8=O)CC7)CC6)CN5C)nc4c3F)c12` (some centres undefined), in assay [1], the half-maximal degradation concentration (DC50) is ≤ 100 nM. Also, in assay [2], the Emax is > 70%.

As for `C#Cc1c(F)ccc2cc(O)cc(-c3ncc4c(N5CC6CCC(C5)N6)nc(OC[C@]56CCCN5[C@H](CN5CCN(CC7CCN(c8ccc9c(c8)CN(C8CCC(=O)NC8=O)C9=O)CC7)CC5)CC6)nc4c3F)c12` (some centres undefined), the DC50 in assay [1] is ≤ 100 nM. Also, the Emax in assay [2] was > 70%.

Turning to `C#Cc1c(F)ccc2cc(O)cc(-c3ncc4c(N5C[C@H]6CC[C@@H](C5)N6)nc(OCCN5CCC(CN6CC7(CCN(c8ccc9c(c8)CN(C8CCC(=O)NC8=O)C9=O)CC7)C6)CC5)nc4c3F)c12` (some centres undefined), in assay [1], the DC50 is ≤ 100 nM. The maximal effect (Emax) in assay [2] is > 70%.

As to `C#Cc1c(F)ccc2cc(O)cc(-c3ncc4c(N5C[C@H]6CC[C@@H](C5)N6)nc(OCCN5CCC(C(F)(F)C6CCN(CC7CCN(c8ccc9c(c8F)CN(C8CCC(=O)NC8=O)C9=O)CC7)CC6)CC5)nc4c3F)c12` (some centres undefined), in assay [1], the DC50 is ≤ 100 nM. For the same compound, the Emax in assay [2] is > 70%.

On to `C#Cc1c(F)ccc2cc(O)cc(-c3ncc4c(N5C[C@H]6CC[C@@H](C5)N6)nc(OC[C@@H]5C[C@@H](OC6CCN(c7ccc8c(c7F)CN(C7CCC(=O)NC7=O)C8=O)CC6)CN5C)nc4c3F)c12` (some centres undefined), for which the DC50 in assay [1] was ≤ 100 nM. In addition, the maximal response (Emax) in assay [2] was > 70%.

As to `C#Cc1c(F)ccc2cc(O)cc(-c3ncc4c(N5C[C@H]6CC[C@@H](C5)N6)nc(OCCN5CCC(CN6CCC7(CC6)CCN(c6ccc8c(c6)CN(C6CCC(=O)NC6=O)C8=O)CC7)CC5)nc4c3F)c12` (some centres undefined), the 50% degradation concentration (DC50) in assay [1] was ≤ 100 nM. Moreover, in assay [2], the Emax was > 70%.

As for `C#Cc1c(F)ccc2cc(O)cc(-c3ncc4c(N5C[C@H]6CC[C@@H](C5)N6)nc(OCCN5CCC(CC6(F)CCN(CC7CCN(c8ccc9c(c8)CN(C8CCC(=O)NC8=O)C9=O)CC7)CC6)CC5)nc4c3F)c12` (some centres undefined), the half-maximal degradation concentration (DC50) in assay [1] is > 1000 nM. Besides, the Emax in assay [2] was 25%.

For `C#Cc1c(F)ccc2cc(O)cc(-c3ncc4c(N5C[C@H]6CC[C@@H](C5)N6)nc(OCCN5CCC(CN6CCC7(CC6)CCN(c6ccc8c(c6F)CN(C6CCC(=O)NC6=O)C8=O)CC7)CC5)nc4c3F)c12` (some centres undefined), the 50% degradation concentration (DC50) in assay [1] is ≤ 100 nM. Moreover, the Emax in assay [2] was > 70%.

Regarding `C#Cc1c(F)ccc2cc(O)cc(-c3ncc4c(N5C[C@H]6CC[C@@H](C5)N6)nc(OCCN5CCC(CC6CCN(CC7CCN(c8ccc9c(c8)CN(C8CCC(=O)NC8=O)C9=O)CC7)CC6)CC5)nc4c3F)c12` (some centres undefined), in assay [1], the DC50 was ≤ 100 nM. Besides, the maximal effect (Emax) in assay [2] is > 70%.

With `C#Cc1c(F)ccc2cc(O)cc(-c3ncc4c(N5C[C@H]6CC[C@@H](C5)N6)nc(OCCN5CCC6(CC5)CCN(CC5CCN(c7ccc8c(c7)CN(C7CCC(=O)NC7=O)C8=O)CC5)CC6)nc4c3F)c12` (some centres undefined), the DC50 in assay [1] was ≤ 100 nM. In addition, the maximal effect (Emax) in assay [2] was > 70%.

`C#Cc1c(F)ccc2cc(O)cc(-c3ncc4c(N5C[C@H]6CC[C@@H](C5)N6)nc(OCCN5CCC(CC6CCN(CC7CCN(c8ccc9c(c8)n(C)c(=O)n9C8CCC(=O)NC8=O)CC7)CC6)CC5)nc4c3F)c12` (some centres undefined): the DC50 in assay [1] was ≤ 100 nM. The maximal effect (Emax) in assay [2] is > 70%.

`C#Cc1c(F)ccc2cc(O)cc(-c3ncc4c(N5C[C@H]6CC[C@@H](C5)N6)nc(OCCN5CCC(CC6CCN(CC7CCN(c8ccc9c(c8F)CN(C8CCC(=O)NC8=O)C9=O)CC7)CC6)CC5)nc4c3F)c12` (some centres undefined): in assay [1], the 50% degradation concentration (DC50) is ≤ 100 nM. In assay [2], the Emax is > 70%.
